In US6448062B1, “Simultaneous cleaning and decontaminating compositions and methods” (priority 1998, dated 2002):
Read-outs that look alike come from different tables or passages of the source.

Legend:
[1] = system: Mycobacterium bovis (ATCC 35743); assay type: cell-based
Azocasein [2] = assay: In-situ protease activity assay: azocasein hydrolysis (Abs390) in H2O2/enzyme solutions; settings: for Absorbance (normalized with dilution factor) of hydrolyzed Azocasein solution at 390 nm: pH 8.5, 23° C., 1% azocasein; for Abs390 hydrolyzed azocasein solution: human chymotrypsin experiment, 23° C.
Procedure: Solutions of 7.5%^w/v H2O2 at various pH levels were prepared by adjusting the pH of 35%^w/w H2O2 solution (Degussa) with 10 mM K3PO4 in a volumetric flask in the presence of K2HPO4 (phosphate buffer, PB). The solution was diluted with 10 mM KH2PO4 solution of the same pH. […] Azocasein powder was added to the H2O2/Alcalase® mixed solutions to yield 0.4%^w/v azocasein. After 30 min at 23° C., 5 ml azocasein solution was mixed with 5 ml 10%^w/v TCA solution. Precipitates were removed after 15 min by filtration, and the supernatant Abs390 was measured.
One half hour prior to various time points (listed in Tables 5a-d), azocasein powder was added to the solution in an amount of 0.4% of the total solution weight. Abs390 of the solution was measured as in Example 4 except that the supernatant was diluted 6-7 fold to avoid saturation of the UV spectrophotometer.
An additional experiment employing the same method was conducted with human chymotrypsin.

[3] = 25 minutes contact at 20° C.; cited from earlier work
[4] = system: spores of Bacillus subtilis (ATCC #19659); assay: AOAC test for Sporicidal Activity of Disinfectants, porcelain penicylinders, no organic soil load; assay type: cell-based; settings: for Results: positive penicylinders: exposure 4 hours
Azocasein [5] = assay: Azocasein hydrolysis (Abs390) by human trypsin or chymotrypsin in PAA/H2O2; settings: 23° C.
Procedure: The activity for the PAA/H2O2 solution alone as a control is also given. […] A volume of 4.05 ml of 10 mM K3PO4 buffer was combined with 0.45 ml initial trypsin buffer solution and 45 mg Azocasein to prepare the trypsin/phosphate buffer solution for the test.
A 0.22%^w/v PAA/1.17%^w/v H2O2 solution was prepared using a dilution of Degussa's 4.9%^w/w PAA/26.6%^w/w H2O2 in a volumetric flask. A volume of 4.05 ml of the latter solution was mixed with 0.45 ml initial trypsin/phosphate buffer solution and 45 mg Azocasein powder.
At 2.8 and 7 h, 1.5 ml sample aliquots were removed from the above three solutions and reacted with 1.5 ml of 10%^w/v trichloroacetic acid stop reagent. After incubating for 15-20 min, the solutions were filtered using Whatman #3 filter paper with a syringe and a Gelman 13 mm filter holder. The filtered solutions were then analyzed with a Shimadzu UV-visible 1601 spectrophotometer Abs390.
An additional example with human chymotrypsin follows. The solutions were similarly prepared as above.

Azocasein [6] = assay: Enzyme activity in 0.368% PAA/2% H2O2, modified Novo azocasein method
Procedure: In a 100 ml volumetric flask, a solution was prepared using 7.5 ml of 4.9%^w/w (Degussa) PAA, 1 ml enzyme, and diluted with 0.2 M tris(hydroxymethyl)aminomethane to control the pH at 8.5 to yield a final concentration of 0.368%^w/v PAA/2%^w/v H2O2. […] A timer was started as soon as the combinations of enzymes and PAA/H2O2 were mixed. At periodic intervals, aliquots of the enzyme/PAA/H2O2 solutions were removed and diluted 64 times to react with the 0.6%^w/v Azocasein substrate solution in a water bath at the modified temperature of 30° C. for 30 min. After stopping the reaction with 10% TCA and filtering the precipitate, the supernatants were analyzed on a spectrophotometer at 390 nm.

## OO [6% H2O2 pH 1.8, hydrogen peroxide]
[1]; contact time 5 min
  % Reduction: 98.65%
  log10 Reduction: 1.87
[1]; contact time 10 min
  % Reduction: 99.25%
  log10 Reduction: 2.13
[1]; contact time 15 min
  % Reduction: 99.51%
  log10 Reduction: 2.31
[1]; contact time 20 min
  % Reduction: 99.38%
  log10 Reduction: 2.21

## c1ccc2[nH]nnc2c1 [Benzotriazole, 1,2,3-benzotriazole]
Azocasein [2]; 7.4 mM Na3PO4, 0.5 h
  Absorbance (normalized with dilution factor) of hydrolyzed Azocasein solution at 390 nm: 0.0986
Azocasein [2]; 7.4 mM Na3PO4, 4.5 h
  Absorbance (normalized with dilution factor) of hydrolyzed Azocasein solution at 390 nm: 0.1536

## CC(=O)OO [PAA, peracetic acid]
[3]
  minimum effective concentration for high-level disinfection: 0.05 %w/w

## OO [Sample 10, hydrogen peroxide]
[4]
  Results: positive penicylinders: 0 positive

## OO [Sample 11, hydrogen peroxide]
[4]
  Results: positive penicylinders: 0 positive

## OO [Solutions of 7.5% H2O2 alone, hydrogen peroxide]
[4]
  exposure at which sporicidal (no positive penicylinders): ≤ 4 h

## Chymotrypsin
Azocasein [5]; pH 7.25, 2 h
  Absorbance at 390 nm of hydrolyzed Azocasein solution: 2.716
Azocasein [5]; pH 7.25, 4 h
  Absorbance at 390 nm of hydrolyzed Azocasein solution: 3.674
Azocasein [2]; 2 h
  Absorbance Ratio of Chymotrypsin/Azocasein solutions with and without 7.5% H2O2: 0.308
Azocasein [2]; 4 h
  Absorbance Ratio of Chymotrypsin/Azocasein solutions with and without 7.5% H2O2: 0.316
Azocasein [2]; pH 7.75, 2 h
  Abs390 hydrolyzed azocasein solution: 2.541
Azocasein [2]; pH 7.75, 4 h
  Abs390 hydrolyzed azocasein solution: 3.653

## Trypsin: human trypsin (Sigma)
Azocasein [5]; pH 7.5, 1% azocasein, 2.8 h
  Absorbance at 390 nm of hydrolyzed Azocasein solution: 1.4254
Azocasein [5]; pH 7.5, 1% azocasein, 7 h
  Absorbance at 390 nm of hydrolyzed Azocasein solution: 1.5588

B1: Alcalase ® 2.5 L: commercial subtilisin A liquid concentrate, 2.5 Anson units per gram (Novo Nordisk) (protein, UniProt P00780 106-379, looked up)
Subtilisin Carlsberg: AQTVPYGIPLIKADKVQAQGFKGANVKVAVLDTGIQASHPDLNVVGGASFVAGEAYNTDGNGHGTHVAGTVAALDNTTGVLGVAPSVSLYAVKVLNSSGSGSYSGIVSGIEWATTNGMDVINMSLGGASGSTAMKQAVDNAYAKGVVVVAAAGNSGSSGNTNTIGYPAKYDSVIAVGAVDSNSNRASFSSVGAELEVMAPGAGVYSTYPTNTYATLNGTSMASPHVAGAAALILSKHPNLSASQVRNRLSSTATYLGSSFYYGKGLINVEAAAQ
modifications: commercial liquid concentrate
Azocasein [6]; 0.368% PAA/2% H2O2, after 7.5 hours
  decrease in activity: 13%
Azocasein [6]; 0.368% PAA/2% H2O2, pH 8.5, 0 h
  Absorbance (proteolytic, 390 nm): 0.6534
Azocasein [6]; 0.368% PAA/2% H2O2, pH 8.5, 3.2 h
  Absorbance (proteolytic, 390 nm): 0.6417
Azocasein [6]; 0.368% PAA/2% H2O2, pH 8.5, 6.5 h
  Absorbance (proteolytic, 390 nm): 0.6729
Azocasein [6]; 0.368% PAA/2% H2O2, pH 8.5, 7.5 h
  Absorbance (proteolytic, 390 nm): 0.5689
